Laboratory results taken from patent publication US7786131B2, “Pyrimido[5,4-d]pyrimidines derivatives as irreversible inhibitors of tyrosine kinases” (Warner-Lambert Company, priority 1996, dated 2010).
Where two headings read alike, the source gives them in different places.

Columns and labels:
[1] = target: T1, insulin receptor intracellular kinase domain (Homo sapiens, UniProt P06213); test: Tyrosine kinase assay, insulin receptor; assay type: biochemical
T1 construct: Assays using intracellular kinase domains of PDGF, FGF, and insulin receptors
T1 sequence (P06213 1023-1298 limits assumed): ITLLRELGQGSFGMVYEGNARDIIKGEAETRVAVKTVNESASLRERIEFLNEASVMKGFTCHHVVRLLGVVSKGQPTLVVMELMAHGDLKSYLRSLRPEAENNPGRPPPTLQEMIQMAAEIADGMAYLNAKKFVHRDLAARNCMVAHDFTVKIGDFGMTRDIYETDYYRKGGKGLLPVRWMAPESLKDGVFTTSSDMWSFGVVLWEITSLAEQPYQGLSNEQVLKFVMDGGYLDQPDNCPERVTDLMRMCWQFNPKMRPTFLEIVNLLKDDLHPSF

c-src tyrosine kinase = c-src tyrosine kinase (UniProt P00523); test: Tyrosine kinase assay, c-src; assay type: biochemical
[2] = target: T2, EGF receptor autophosphorylation in A431 cells (Homo sapiens, UniProt P00533); test: Irreversibility test: recovery of EGF receptor autophosphorylation after washout; assay type: cell-based; conditions: for remaining activity at 2 µM: A-431, A431 cells treated 2 hours with 2 μM, read-out: % of Control Autophosphorylation
T2 construct: A431 human epidermoid carcinoma cells were grown in 6-well plates; endogenous in cells; host or cells: A431 human epidermoid carcinoma cells
T2 sequence (P00533 25-1210): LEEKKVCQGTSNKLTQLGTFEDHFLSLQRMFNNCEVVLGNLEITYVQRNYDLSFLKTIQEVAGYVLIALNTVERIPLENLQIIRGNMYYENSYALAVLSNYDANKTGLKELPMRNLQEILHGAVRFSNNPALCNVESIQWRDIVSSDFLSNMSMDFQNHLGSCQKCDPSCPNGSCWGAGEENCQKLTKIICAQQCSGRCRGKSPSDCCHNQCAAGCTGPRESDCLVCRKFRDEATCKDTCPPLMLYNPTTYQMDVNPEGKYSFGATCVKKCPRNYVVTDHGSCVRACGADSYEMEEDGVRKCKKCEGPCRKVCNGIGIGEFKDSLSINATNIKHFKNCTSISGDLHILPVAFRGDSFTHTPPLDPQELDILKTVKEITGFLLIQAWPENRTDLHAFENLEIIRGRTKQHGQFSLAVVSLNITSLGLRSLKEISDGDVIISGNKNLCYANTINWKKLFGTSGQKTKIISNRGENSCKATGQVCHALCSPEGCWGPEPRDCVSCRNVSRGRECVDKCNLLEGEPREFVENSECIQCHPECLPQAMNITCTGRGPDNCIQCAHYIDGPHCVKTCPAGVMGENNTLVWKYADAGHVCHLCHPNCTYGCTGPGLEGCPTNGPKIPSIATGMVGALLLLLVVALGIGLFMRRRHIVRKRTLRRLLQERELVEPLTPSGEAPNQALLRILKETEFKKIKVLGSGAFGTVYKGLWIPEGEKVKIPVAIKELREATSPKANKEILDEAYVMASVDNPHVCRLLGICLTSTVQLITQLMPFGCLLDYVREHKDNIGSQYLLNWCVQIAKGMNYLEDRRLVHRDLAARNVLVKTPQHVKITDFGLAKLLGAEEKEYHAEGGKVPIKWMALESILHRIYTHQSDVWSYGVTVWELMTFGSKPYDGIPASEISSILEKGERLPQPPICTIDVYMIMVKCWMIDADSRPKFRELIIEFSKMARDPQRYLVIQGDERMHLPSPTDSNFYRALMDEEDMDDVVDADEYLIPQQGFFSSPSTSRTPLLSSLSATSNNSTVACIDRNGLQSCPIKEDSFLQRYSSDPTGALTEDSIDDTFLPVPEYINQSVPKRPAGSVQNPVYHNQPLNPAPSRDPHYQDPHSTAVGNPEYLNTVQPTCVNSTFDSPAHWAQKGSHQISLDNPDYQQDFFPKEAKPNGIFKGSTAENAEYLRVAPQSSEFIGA
Procedure: (§1) Extracts were made by lysing the monolayers in 0.2 mL of boiling Laemlli buffer (2% sodium dodecyl sulfate, 5% beta-mercaptoethanol, 10% glycerol and 50 mM tris[hydroxymethyl]aminomethane (Tris), pH 6.8), and the lysates were heated to 100° C. for 5 minutes. Proteins in the lysate were separated by polyacrylamide gel electrophoresis and electrophoretically transferred to nitrocellulose. The membrane was washed once in 10 mM Tris, pH 7.2, 150 mM NaCl, 0.01% Azide (TNA), and blocked overnight in TNA containing 5% bovine serum albumin and 1% ovalbumin. The membrane was blotted for 2 hours with antiphosphotyrosine antibody (UBI, 1 μg/mL in blocking buffer) and then washed twice in TNA, once in TNA containing 0.05% Tween-20 detergent and 0.05% nonidet P-40 detergent and twice in TNA. […] Band intensities were determined with a Molecular Dynamics laser densitometer.
Duplicate sets of cells were treated with 2 μM of designated compound to be tested as an irreversible inhibitor for either 1 or 2 hours. One set of cells was then stimulated with 100 ng/mL of EGF for 5 minutes and extracts made as described under the western blotting procedure. The other set of cells were washed free of the compound with warmed serum-free media, incubated for 2 hours, washed again, incubated another 2 hours, washed again, and then incubated a further 4 hours. This set of cells was then stimulated with EGF and extracts made similar to the first set of cells.

[3] = target: T2, EGF receptor autophosphorylation in A431 cells; test: Autophosphorylation assay in A431 cells; assay type: cell-based; conditions: EGF-stimulated EGFR autophosphorylation in A431 cells
Procedure: as §1
Duplicate sets of cells were treated with a range of concentrations of the designated compound to be tested as an inhibitor for 15 minutes. The cells were then stimulated with 100 ng/mL of EGF for 5 minutes and extracts made as described under the Western Blotting Procedure.

[4] = target: EGF receptor tyrosine kinase (Homo sapiens, UniProt P00533); test: Tyrosine kinase assay, isolated EGF receptor tyrosine kinase; assay type: biochemical
EGF receptor tyrosine kinase, sequence (P00533 25-1210): as above

[5] = target: T3, FGF receptor intracellular kinase domain (FGF1) (Homo sapiens, UniProt P11362); test: Tyrosine kinase assay, FGF receptor; assay type: biochemical
T3 construct: Assays using intracellular kinase domains of PDGF, FGF, and insulin receptors
T3 sequence (P11362 478-767 limits assumed): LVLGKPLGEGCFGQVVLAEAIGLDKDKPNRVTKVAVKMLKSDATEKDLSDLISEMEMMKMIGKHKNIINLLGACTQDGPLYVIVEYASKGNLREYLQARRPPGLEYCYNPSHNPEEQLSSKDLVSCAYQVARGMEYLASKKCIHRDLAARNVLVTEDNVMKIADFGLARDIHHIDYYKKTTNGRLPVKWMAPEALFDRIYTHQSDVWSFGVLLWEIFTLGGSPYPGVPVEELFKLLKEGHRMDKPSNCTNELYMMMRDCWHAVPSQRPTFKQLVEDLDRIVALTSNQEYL

[6] = tested on: A431 human epidermoid carcinoma cells; test: Growth inhibition assay in A431 cells; assay type: cell-based; conditions: A-431, 72 hours, cell count, read-out: IC50, inhibition of proliferation in A431 cells
Procedure: A431 human epidermoid carcinoma cells were obtained from the American Type Culture Collection, Rockville, Md. and maintained as monolayers in dMEM (Dulbecco's modified eagle medium)/F12, 50:50 (Gibco/BRL) containing 10% fetal bovine serum. […] The plates were incubated for 72 hours at 37° C. in a humidified atmosphere containing 5% CO2 in air. Cell growth was determined by cell count with a Coulter Model AM electronic cell counter (Coulter Electronics, Inc., Hialeah, Fla.).

[7] = tested on: NIH 3T3 fibroblast transfected with the h-EGF receptor; test: EGFR tumor xenograft in nude mice
Procedure: Female nude mice (NCr nu/nu, Taconic Farms) 18-20 g were implanted SC with tumor fragments (approximately 30 mg) in the region of the right axilla on Day 0. […] The vehicle was 6% dimethyl acetamide in 50 mM lactate buffer, pH 4.0Tumor volumes were recorded three times per week by measuring the length and width of the individual tumors and calculating the mass in milligrams according to the formula (a×b^2)/2, where a and b are the length and width of the tumor. Percent T/C (treated/control) was calculated based on the ratio of the median tumor volume of the treated tumors compared with the median tumor volume of the control tumors on specified measurement days.

C=CC(=O)Nc1ccc2c(Nc3cccc(Br)c3)ncnc2c1 [Example 3, N-[4-(3-Bromo-phenylamino)-quinazolin-7-yl]acrylamide]
IC50 [1]: > 50000 nM
IC50 (c-src tyrosine kinase): > 2500 nM
% Control After 2-Hour Incubation ([2]; A431 cells, 2 μM inhibitor, EGFR autophosphorylation): 1%
% Control After 8 Hours in Drug-Free Media Incubation ([2]; A431 cells, 2 μM inhibitor, washed, 8 hours drug-free): 13%
time required for return of 50% of the activity ([2]; A431 cells, 2 μM, drug-free media (Table 3)): 21 h
remaining activity at 2 µM ([2]; 0 hours in drug-free media): 0%
remaining activity at 2 µM ([2]; 4 hours in drug-free media): 12%
remaining activity at 2 µM ([2]; 8 hours in drug-free media): 23%
remaining activity at 2 µM ([2]; 23 hours in drug-free media): 54%
inhibition at 2 µM ([2]; A-431, A431 cells, 2 μM, end of 8 hours washoff, read-out: inhibition of the enzyme (kinase activity) after washoff): 89%
IC50 [3]: 14 nM
specificity for the EGF receptor tyrosine kinase as opposed to other tyrosine kinase enzymes ([4]; Table 4): very high specificity
IC50 ([4]; Table 4, read-out: EGFR IC50): 0.36 nM
IC50 ([4]; isolated EGFR kinase, read-out: EGFR Tyrosine Kinase IC50): 0.36 nM
IC50 [5]: > 50000 nM
IC50 [6]: 300 ± 90 nM
% T/C ([7]; 3 mg/kg/injection, Day 7): 115%
% T/C ([7]; 3 mg/kg/injection, Day 10): 138%
% T/C ([7]; 3 mg/kg/injection, Day 12): 113%
% T/C ([7]; 30 mg/kg/injection, Day 7): 48%
% T/C ([7]; 30 mg/kg/injection, Day 10): 66%
% T/C ([7]; 30 mg/kg/injection, Day 12): 53%
% T/C ([7]; 100 mg/kg/injection, Day 7): 57%
% T/C ([7]; 100 mg/kg/injection, Day 10): 70%
% T/C ([7]; 100 mg/kg/injection, Day 12): 57%
activity against tumor growth ([7]; 10 or 3 mg/kg/injection IP every 12 hours Days 3-7): No activity
growth delay ([7]; EGFR tumor, IP bid Days 1 through 13, 75 mg/kg): 5 days
activity ([7]; EGFR tumor, IP bid Days 1 through 13, 300 mg/kg): no activity
growth delay ([7]; EGFR tumor, IP bid Days 1 through 13, 190 and 120 mg/kg): 1 days
growth delay ([7]; EGFR tumor, IP bid Days 3 through 7, 30 mg/kg): 2.5 days
growth delay ([7]; EGFR tumor, IP bid Days 3 through 7, 100 mg/kg): 4 days
weight loss, lethality, or clinical signs of toxicity ([7]; any dose level, IP every 12 hours Days 3-7): No weight loss, lethality, or clinical signs of toxicity
